Results on 17 compounds are retold here after patent US7632952B2, “Benzothiazoles and the use thereof as medicaments” (Aventis Pharma S.A., priority 2004, dated 2009).

pIC50: −log10 of the molar value. Where a name gives a salt, the structure may show the parent alone.

One assay relates to HeLa. Briefly: HeLa proliferation. The following applies: Homo sapiens, read-out: HeLa proliferation EC50 (nM) DG. The format is cell-based.
The target in the next assay is CDK2/cyclin E (Homo sapiens, UniProt P24941). As to the kind of experiment: CDK2/cyclin E Flashplate test in 96-well format. The assay is classed as biochemical. Conditions: read-out: CDK2 IC50. In outline: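 CDK2/cyclin E-(His)6 from baculovirus-coinfected Sf21 cells was IMAC-purified. Kinase reaction used biotinylated pRb peptide (10 μM final), [γ-33P]ATP in HEPES pH 7.5 with Mg2+ and DTT, at 30 °C in streptavidin Flashplates. 33P incorporation was scintillation counted and IC50 determined.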

For a further assay, the target named is T1, Aurora 2 (Homo sapiens, UniProt O14965).
T1 construct: A complete recombinant Aurora 2 enzyme, the N-terminal end of which was labeled with histidine; His tag (N); made in house; host or cells: E. coli
T1 sequence (O14965 1-403): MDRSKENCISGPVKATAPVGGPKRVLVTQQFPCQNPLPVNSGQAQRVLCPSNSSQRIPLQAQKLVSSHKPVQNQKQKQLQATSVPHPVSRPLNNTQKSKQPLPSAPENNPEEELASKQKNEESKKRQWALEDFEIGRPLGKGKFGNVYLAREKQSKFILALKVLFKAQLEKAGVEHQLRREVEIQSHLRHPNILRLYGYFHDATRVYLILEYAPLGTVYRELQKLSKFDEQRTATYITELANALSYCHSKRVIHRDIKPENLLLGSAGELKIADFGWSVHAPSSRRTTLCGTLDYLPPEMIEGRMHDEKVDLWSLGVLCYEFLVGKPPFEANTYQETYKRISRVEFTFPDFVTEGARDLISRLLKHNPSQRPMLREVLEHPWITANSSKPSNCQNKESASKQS
Briefly: Aurora 2 kinase radioactivity scintillation test. The format is biochemical. The procedure: The inhibitory effect of the compounds toward the kinase Aurora 2 is determined via a radioactivity scintillation test.
A complete recombinant Aurora 2 enzyme, the N-terminal end of which was labeled with histidine, was expressed in E. coli and purified to a quality close to homogeneity.
The C-terminal fragment (Q1687-H2101) of an NuMA (nuclear protein which is associated with the Mitotic Apparatus) expressed in E. coli, and the N-terminal end of which was labeled with histidine, was purified by chromatography with nickel chelate and used as substrate in the Aurora 2 kinase test.
The kinase activity of Aurora 2 is measured by scintillation on a microplate saturated with nickel chelate (New England Nuclear, SMP107 model). Each well contains 100 μl of the following solution: 0.02 μM of Aurora 2; 0.5 μM of NuMA substrate; 1 μM of ATP supplemented with 0.5 μCi of ATP-[^33P]. The solutions are incubated for 45 minutes at 37° C. The test buffer is then removed and the wells are rinsed twice with 300 μl of kinase buffer. The radioactivity is measured in each well using a Packard Model Top Count NXT machine.
The background noise is measured in duplicate in wells containing the radioactive ATP alone containing buffered kinase treated in the same manner as for the other samples.
The activity of the control is determined by measuring in duplicate the radioactivity in the complete test mixture (ATP, Aurora 2 and NuMA substrate), in the absence of test compound.
The inhibition of the activity of Aurora 2 with a compound of the invention is expressed as a percentage of inhibition of the control activity in the absence of test compound. Staurosporin is added to each plate as inhibition control.

As to `CC(C)N(CCNc1ccc(S(=O)(=O)Oc2ccc3nc(NC(=O)C4(N)CCCC4)sc3c2)cc1)C(C)C` [Example 41, 4-(2-diisopropylaminoethylamino)benzenesulfonic acid 2-[(1-aminocyclopentanecarbonyl)amino]benzothiazol-6-yl ester], the EC50 in the assay with HeLa was 8390 nM. Besides, the negative-log IC50 (pIC50) at CDK2/cyclin E was below 5.00; on Aurora 2, 6.49.

Regarding `CC(=O)Nc1nc2ccc(OS(=O)(=O)c3ccc(NCCN(C(C)C)C(C)C)cc3)cc2s1` [Example 43, 4-(2-Diisopropylaminoethylamino)benzenesulfonic acid 2-acetylaminobenzothiazol-6-yl ester], the EC50 in the assay with HeLa amounted to 36 nM. The pIC50 on CDK2/cyclin E was 7.31; on Aurora 2 it was 5.70.

Turning to `CC(C)(CNc1ccc(S(=O)(=O)Oc2ccc3nc(NC(=O)C4CC4)sc3c2)cc1)OP(=O)(O)O` [Example 89, 4-(2-methyl-2-phosphonooxypropylamino)benzene-sulfonic acid 2-(cyclopropanecarbonylamino)benzothiazol-6-yl ester], in the assay on HeLa, the EC50 was 2510 nM. For the same compound, the pIC50 on CDK2/cyclin E is 6.98; on Aurora 2 it was 6.59.

With `CC(C)(O)CNc1ccc(S(=O)(=O)Oc2ccc3nc(NC(=O)C4CC4)sc3c2)cc1` [Example 11, 4-(2-hydroxy-2-methylpropylamino)benzene-sulfonic 2-(cyclopropanecarbonylamino)benzothiazol-6-yl ester], the EC50 in the assay with HeLa came out at 80 nM. The pIC50 at CDK2/cyclin E was 7.72; at Aurora 2, 6.98.

For `O=C(Nc1nc2ccc(OS(=O)(=O)c3ccc(NCCCn4ccnc4)cc3)cc2s1)C1CC1` [Example 9, 4-(3-imidazol-1-ylpropylamino)benzenesulfonic 2-(cyclopropanecarbonylamino)benzothiazol-6-yl ester], the EC50 with HeLa worked out at 611 nM. Moreover, the pIC50 on CDK2/cyclin E was 7.17; at Aurora 2, 7.19.

On to `O=C(Nc1nc2ccc(OS(=O)(=O)c3ccc(-c4ccccn4)s3)cc2s1)C1CC1` [Example 85, 5-pyridin-2-ylthiophene-2-sulfonic acid 2-(cyclopropanecarbonylamino)benzothiazol-6-yl ester], for which, in the assay on HeLa, the EC50 is above 12500 nM. The pIC50 on CDK2/cyclin E was below 5.00; on Aurora 2 it was 5.16.

For the compound `CC(C)NCCNc1ccc(S(=O)(=O)Oc2ccc3nc(NC(=O)C4CC4)sc3c2)cc1` [Example 53, 4-(2-isopropylaminoethylamino)benzenesulfonic 2-(cyclopropanecarbonylamino)benzothiazol-6-yl ester hydrochloride], the EC50 with HeLa was 16 nM. Also, the pIC50 is 7.60 on CDK2/cyclin E and 6.76 on Aurora 2.

On to `CCC(=O)Nc1nc2ccc(OS(=O)(=O)c3ccc(NCCN(C(C)C)C(C)C)cc3)cc2s1` [Example 57, 4-(2-diisopropylaminoethylamino)benzenesulfonic acid 2-propionylaminobenzothiazol-6-yl ester hydrochloride], for which the EC50 with HeLa amounted to 79 nM. In addition, the negative logarithm of the IC50 (pIC50) on CDK2/cyclin E is 7.40; at Aurora 2, 5.50.

Take `CC(C)C(=O)Nc1nc2ccc(OS(=O)(=O)c3ccc(NCCN(C(C)C)C(C)C)cc3)cc2s1` [Example 55, 4-(2-diisopropylaminoethylamino)benzenesulfonic acid 2-isobutyrylaminobenzothiazol-6-yl ester hydrochloride]: in the assay on HeLa, the EC50 worked out at 43 nM. Further, the pIC50 on CDK2/cyclin E is 7.14; on Aurora 2, 5.23.

With `CNc1ccc(S(=O)(=O)Oc2ccc3nc(NC(=O)C4CC4)sc3c2)cc1` [Example 10, 4-methylaminobenzenesulfonic 2-(cyclopropane-carbonylamino)benzothiazol-6-yl ester], the EC50 with HeLa was determined as 807 nM. In addition, the pIC50 at CDK2/cyclin E was 7.04; on Aurora 2, 7.47.

Take `CC(C)(O)CNc1ccc(S(=O)(=O)Oc2ccc3nc(NC(=O)CCc4cccnc4)sc3c2)cc1` [Example 63, 4-(2-hydroxy-2-methylpropylamino)benzene-sulfonic acid 2-(3-pyrid-3-ylpropionylamino)benzothiazol-6-yl ester hydro-chloride]: the EC50 with HeLa worked out at 8370 nM. The pIC50 is 7.10 at CDK2/cyclin E and 5.98 at Aurora 2.

Regarding `CC(C)N(CCNc1ccc(S(=O)(=O)Oc2ccc3nc(NC(=O)C4CCCC4)sc3c2)cc1)C(C)C` [Example 45, 4-(2-Diisopropylaminoethylamino)benzenesulfonic acid 2-(cyclo-pentanecarbonylamino)benzothiazol-6-yl ester], the EC50 with HeLa turned out to be 289 nM. Further, the pIC50 is 6.87 at CDK2/cyclin E and 5.54 on Aurora 2.

As for `O=C(Nc1nc2ccc(OS(=O)(=O)c3cccs3)cc2s1)C1CC1` [Example 33h, Thiophene-2-sulfonic acid 2-(cyclopro-panecarbonylamino)benzothiazol-6-yl ester], in the assay on HeLa, the EC50 worked out at 4430 nM. Further, the pIC50 at CDK2/cyclin E is 5.16; at Aurora 2, 7.17.

On to `CC(C)N(CCNc1ccc(S(=O)(=O)Oc2ccc3nc(NC(=O)C4CCC4)sc3c2)cc1)C(C)C` [Example 60, 4-(2-diisopropylaminoethylamino)benzenesulfonic acid 2-(cyclobutanecarbonylamino)benzothiazol-6-yl ester hydrochloride], for which the EC50 in the assay on HeLa came out at 199 nM. For the same compound, the pIC50 is 6.98 at CDK2/cyclin E and 5.55 on Aurora 2.

`CC(C)N(CCNc1ccc(S(=O)(=O)Oc2ccc3nc(NC(=O)C4CC4)sc3c2)cc1)C(C)C` [Example 12, 4-(2-diisopropylaminoethylamino)benzenesulfonic 2-(cyclopropanecarbonylamino)benzothiazol-6-yl ester]: in the assay on HeLa, the EC50 was found to be 16 nM. The pIC50 at CDK2/cyclin E is 7.60; on Aurora 2, 6.76.

For the compound `COCC(=O)Nc1nc2ccc(OS(=O)(=O)c3ccc(NCCN(C(C)C)C(C)C)cc3)cc2s1` [Example 44, 4-(2-Diisopropylaminoethylamino)benzenesulfonic acid 2-(2-methoxyacetylamino)benzothiazol-6-yl ester], the EC50 in the assay with HeLa turned out to be 76 nM. Also, the pIC50 at CDK2/cyclin E was 6.97; at Aurora 2, 5.51.

Take `CC(=O)Nc1nc2ccc(OS(=O)(=O)c3ccc(NCCNC(C)C)cc3)cc2s1` [Example 65, 4-(2-isopropylaminoethylamino)benzenesulfonic acid 2-acetylaminobenzothiazol-6-yl ester]: the EC50 in the assay with HeLa is 122 nM. The figures for the pIC50 on CDK2/cyclin E and at Aurora 2 were 6.97 and 6.08, respectively.
